According to patent publication US20020102688A1, “Methods and products for the synthesis of oligosaccharide structures on glycoproteins, glycolipids, or as free molecules, and for the isolation of cloned genetic sequences that determine these structures” (The Regents of the University of Michigan, priority 1990, published 2002):

Legend:
Fuc-TIV = molecular target: T1, Fuc-TIV (Homo sapiens, UniProt P22083); test: Fucosyltransferase assay, extracts of COS-1 cells transfected with pCDNA1-Fuc-TIV; format: biochemical; parameters: expressed in transfected cells; host or cells: COS-1 cells, transient transfection, 1% Triton X-100 extract; settings: for Relative Activity (%) with Fuc-TIV: relative product formation rate, N-acetyllactosamine = 100, acceptor 20 mM (2-fucosyllactose 5 mM), GDP-[14C]fucose 3 μM, transfected COS-1 cell extract; for fucosyltransferase activity with acceptor substrate: standard assay, extracts of pCDNA1-Fuc-TIV transfected COS-1 cells, acceptor 20 mM; for fucose transfer to acceptor: pCDNA1-Fuc-TIV COS-1 extracts with relatively large activity toward N-acetyllactosamine
T1 sequence (P22083 1-405 isoform P22083-2): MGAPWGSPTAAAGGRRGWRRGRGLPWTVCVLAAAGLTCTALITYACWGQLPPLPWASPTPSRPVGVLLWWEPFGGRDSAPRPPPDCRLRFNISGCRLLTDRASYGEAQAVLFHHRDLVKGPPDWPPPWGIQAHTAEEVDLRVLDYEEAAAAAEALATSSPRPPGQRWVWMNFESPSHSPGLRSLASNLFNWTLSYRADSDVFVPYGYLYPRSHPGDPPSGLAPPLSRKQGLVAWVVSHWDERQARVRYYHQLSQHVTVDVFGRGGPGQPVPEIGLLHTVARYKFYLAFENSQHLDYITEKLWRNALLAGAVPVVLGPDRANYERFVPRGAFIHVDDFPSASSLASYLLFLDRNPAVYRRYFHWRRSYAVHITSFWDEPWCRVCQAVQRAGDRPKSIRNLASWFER
Method: Cell extracts containing 1% Triton X-100 were prepared from transfected COS-1 cells. Fucosyltransferase assays were performed in a total volume of 20 μl, and contained 50 mM sodium cacodylate, pH 6.2, 5 mM ATP, 10 mM fucose, 20 mM MnCl2, 3 μM GDP-^14C-fucose, and 5 μl (30 μg protein) of cell extract. Acceptor substrates were added to a final concentration of 20 mM. Reactions were incubated at 37° C. for 1 hour and terminated by addition of 20 μl ethanol, followed by addition of 600 μl of distilled water. An aliquot of each reaction (50 μl) was subjected to scintillation counting to determine total radioactivity in the reaction. Another aliquot (200 μl) was applied to a column containing 400 μl of Dowex IX2-400, formate form. The flow through fraction, and […] of a subsequent water elution, were collected and pooled, and an aliquot was subjected to scintillation counting to quantitate incorporation of radioactive fucose into neutral product. Descending paper chromatography was used to confirm the structure of the product formed with the acceptor N-acetyllactosamine. The neutral product in the Dowex column eluate was concentrated by lyophilization, resuspended in a small volume of water, and fractionated through Whatman No. 40 in phenol/isopropanol/formic acid/water (85:5:10:100, lower layer). After chromatography (40 hours), the air-dried chromatogram was cut into 1 cm strips and the strips eluted into 2 ml of water. Radioactivity in each eluate was determined by scintillation counting after mixing with 10 ml of scintillation cocktail.
Table 2 presents the relative product formation rates obtained with low molecular weight acceptor substrates using cell extracts containing recombinant human α(1,3)fucosyltransferases expressed in transfected COS-1 cells, as described in the preceding sections. Fucosyltransferase assays were performed as described in detail in Lowe et al, J. Biol. Chem., (1991), 266:17467-17477; Weston et al, J. Biol. Chem. (1992), 267:4152-4160; and Kukowska-Latallo et al, Genes. Devel., (1990), 4:1288-1303. For each enzyme, the same extract was used, with saturating amounts of each acceptor oligosaccharide (20 mM, except for 2′-fucosylactose which was used at 5 mM), and GDP-^14C]fucose was present at 3 μM. Reaction times and enzyme amounts were adjusted to ensure a linear rate of product formation (less than 15% of the GDP-fucose substrate consumed). Products were separated by column chromatography and quantitated by liquid scintillation counting, and their structures were confirmed by high performance liquid chromatography, as described in Lowe et al, J. Biol. Chem., (1991), 266:17467-17477; Weston et al, J. Biol. Chem. (1992), 267:4152-4160; and Kukowska-Latallo et al, Genes. Devel., (1990), 4:1288-1303.

[1] = test system: monoclonal anti-H antibody (BE2); test: Hapten inhibition of BE2 anti-H antibody binding to mH1-12 cells; parameters: species or system mouse; settings: antibody preincubated with hapten, 20 mM
Method: Immunofluoroscence was performed on cells plated on 8-well tissue culture chamber slides (Lab-Tek). Cells were plated at a density of 5×10^4/well 24 h prior to analysis. Anti-H and anti-A primary antibodies were diluted in PBS containing bovine serum albumin at 2 mg/ml, to a final concentration of 10 μg/ml. Cell-bound primary antibodies were detected with FITC-conjugated goat anti-mouse IgM, diluted to 40 μg/ml in PBS containing 2 mg/ml bovine serum albumin.
Hapten Inhibition—Plated cells were washed twice with PBS, and were incubated for 30 min at 4° C. with 100 μl of diluted anti-H antibody, or with 100 μl of diluted antibody containing different oligosaccharide haptens, each at a concentration of 20 mM. The chambers were then washed twice, and 100 μl of FITC-conjugated goat anti-mouse IgM was added. After 30 min at 4° C., the chambers were washed three times with PBS, and the cells were fixed at room temperature for 10 min in 3.7% formaldehyde in PBS. The cells were washed twice with PBS, the chambers were removed, and the slide was mounted in PBS containing 25% glycerol. Cells were examined by fluorescence microscopy using a Zeiss Axiophot photomicroscope equipped with fluorescence epiillumination.

[2] = molecular target: T2, agglutinin from Erythrina cristagalli (ECA) (Erythrina crista-galli, UniProt P83410); test: Hapten inhibition of FITC-ECA binding to L cells (FACS); settings: FITC-labeled ECA preincubated with hapten
T2 construct: purchased E-Y Labs (San Mateo, Calif.)
T2 sequence (P83410 1-239): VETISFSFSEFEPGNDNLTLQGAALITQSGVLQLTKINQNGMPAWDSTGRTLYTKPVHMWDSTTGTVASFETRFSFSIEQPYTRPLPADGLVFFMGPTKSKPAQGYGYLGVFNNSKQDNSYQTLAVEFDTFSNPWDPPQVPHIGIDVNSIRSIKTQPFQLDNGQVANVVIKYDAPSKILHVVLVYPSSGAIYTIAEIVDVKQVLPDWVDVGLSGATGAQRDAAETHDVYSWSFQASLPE
Method: These would represent potential acceptor molecules for a complementing human (α-1,2)fucosyltransferase activity and would allow the resulting surface-expressed Fucα(1,2)Gal linkages to be detected with anti-H antibody. The agglutinin from Erythrina cristagalli (ECA) was used for this analysis. […] L cells were stained with purified, FITC-labeled ECA, or with FITC-labeled ECA that had been preincubated with the hapten N-acetyllactosamine and were subjected to FACS analysis.

Compound | Relative Activity (%) with Fuc-TIV (Fuc-TIV) [%] | fucosyltransferase activity with acceptor substrate (Fuc-TIV) | inhibition of BE2 anti-H antibody binding to mH1-12 cells by hapten [1] | fucose transfer to acceptor (Fuc-TIV) | inhibition of ECA binding to L cells by hapten [2]
OC[C@H]1O[C@@H](O[C@H]2[C@H](O)[C@@H](O)C(O)O[C@@H]2CO)[C@H](O)[C@@H](O)[C@H]1O (stereo partly shown) [lactose] | 3 | 10 pmol/mg/h | – | – | –
CC(=O)N[C@@H]1[C@@H](O[C@@H]2O[C@H](CO)[C@H](O)[C@H](O)[C@H]2O)[C@H](O)[C@@H](CO)O[C@@H]1O [lacto-N-biose I] | <1 | trace amount | – | – | –
Fucα(1,2)Galβ(1,4)Glc [2-fucosyllactose] | 6 | 17 pmol/mg/h | inhibition of binding | – | –
CC(=O)NC1C(O)OC(CO)C(OC2OC(CO)C(O)C(OC3(C(=O)O)CC(O)C(NC(C)=O)C(C(O)C(O)CO)O3)C2O)C1O (stereo not drawn) [α(2,3)sialyllactosamine, NeuAcα(2→3)Galβ(1→4)GlcNAc] | <1 | – | – | less than 1 pmol/mg-h | –
CC(=O)N[C@H]1C(O)O[C@H](CO)[C@@H](O[C@@H]2O[C@H](CO)[C@H](O)[C@H](O)[C@H]2O)[C@@H]1O (stereo partly shown) [N-acetyllactosamine] | 100 | 296 pmol/mg/h | – | 474 pmol/mg/h | effectively inhibited
